Results: ChEMBL document CHEMBL4265994, “Design, synthesis, cholinesterase inhibition and molecular modelling study of novel tacrine hybrids with carbohydrate derivatives” (Bioorg Med Chem, 2018)

Columns and labels:
Acetylcholinesterase = biological target: T1, Acetylcholinesterase (Mus musculus, UniProt P21836); experiment: Inhibition of AChE in Swiss Webster mouse cerebral homogenate using acetylthiocholine iodide as substrate preincubated for 10 mins followed substrate addition measured after 10 mins by Ellman's method
T1 sequence (P21836 whole entry): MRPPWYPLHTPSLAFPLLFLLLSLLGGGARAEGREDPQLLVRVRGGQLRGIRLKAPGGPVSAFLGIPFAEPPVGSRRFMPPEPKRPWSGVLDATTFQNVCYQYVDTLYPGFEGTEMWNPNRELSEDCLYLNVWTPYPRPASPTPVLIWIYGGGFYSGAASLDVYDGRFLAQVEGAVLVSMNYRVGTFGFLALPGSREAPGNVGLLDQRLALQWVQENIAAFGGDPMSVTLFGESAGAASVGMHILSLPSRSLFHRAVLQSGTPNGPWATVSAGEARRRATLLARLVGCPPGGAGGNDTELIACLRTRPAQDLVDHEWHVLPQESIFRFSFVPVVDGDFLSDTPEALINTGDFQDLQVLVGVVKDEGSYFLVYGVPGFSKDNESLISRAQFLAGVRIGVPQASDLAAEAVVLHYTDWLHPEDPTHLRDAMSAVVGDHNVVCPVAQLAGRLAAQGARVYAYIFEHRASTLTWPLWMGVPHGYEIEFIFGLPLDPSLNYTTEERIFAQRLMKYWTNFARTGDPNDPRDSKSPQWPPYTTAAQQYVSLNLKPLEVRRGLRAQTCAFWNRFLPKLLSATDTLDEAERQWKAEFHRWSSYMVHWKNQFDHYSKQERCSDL

Cholinesterase = Cholinesterase (Mus musculus, UniProt Q03311); experiment: Inhibition of BuChE in Swiss Webster mouse whole blood serum using butyrylthiocholine iodide as substrate preincubated for 10 mins followed substrate addition measured after 10 mins by Ellman's method
Sequence of Cholinesterase (Q03311 whole entry): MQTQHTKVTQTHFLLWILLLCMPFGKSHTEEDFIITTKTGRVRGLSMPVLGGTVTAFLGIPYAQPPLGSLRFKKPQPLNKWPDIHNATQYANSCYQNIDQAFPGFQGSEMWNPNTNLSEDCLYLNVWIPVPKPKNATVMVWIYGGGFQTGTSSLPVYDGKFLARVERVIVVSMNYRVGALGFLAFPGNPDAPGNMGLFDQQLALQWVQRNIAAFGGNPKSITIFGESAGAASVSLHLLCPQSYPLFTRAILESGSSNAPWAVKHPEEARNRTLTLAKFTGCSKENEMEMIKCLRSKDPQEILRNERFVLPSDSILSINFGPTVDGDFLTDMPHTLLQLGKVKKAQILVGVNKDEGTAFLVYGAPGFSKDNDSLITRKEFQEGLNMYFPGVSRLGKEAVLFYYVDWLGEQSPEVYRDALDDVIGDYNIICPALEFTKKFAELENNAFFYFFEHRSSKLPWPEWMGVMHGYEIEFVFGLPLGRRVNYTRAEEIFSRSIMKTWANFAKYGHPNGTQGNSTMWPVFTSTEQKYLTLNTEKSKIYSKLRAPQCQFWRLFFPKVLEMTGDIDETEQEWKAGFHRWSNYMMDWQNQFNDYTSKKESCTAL

Compound | IC50 (Acetylcholinesterase) | IC50 (Cholinesterase)
c1ccc2c(NCCCCCCCNc3c4c(nc5ccccc35)CCCC4)c3c(nc2c1)CCCC3 | 0.0019 µM | 0.0091 µM
CO[C@@H]1O[C@H](CNCCCCCCCCCNc2c3c(nc4ccccc24)CCCC3)[C@H]2OC(C)(C)O[C@@H]12 | 0.0655 µM | 0.0643 µM
CC1(C)O[C@H]2O[C@H](CNCCCCCCCNc3c4c(nc5ccccc35)CCCC4)[C@H](O)[C@H]2O1 | 0.0844 µM | 0.0117 µM
CC1(C)O[C@H]2O[C@H](CNCCCCCCCCCCNc3c4c(nc5ccccc35)CCCC4)[C@H](O)[C@H]2O1 | 0.0022 µM | 0.00493 µM
CC1(C)O[C@H]2[C@@H](O1)[C@@H](CNCCCCCCCCCNc1c3c(nc4ccccc14)CCCC3)O[C@@H]1OC(C)(C)O[C@@H]12 | 0.0076 µM | 0.0262 µM
CC1(C)O[C@H]2O[C@H](CNCCCCCCCCNc3c4c(nc5ccccc35)CCCC4)[C@H](O)[C@H]2O1 | 0.0051 µM | 0.0258 µM
CC1(C)O[C@H]2O[C@H](CNCCCCCCNc3c4c(nc5ccccc35)CCCC4)[C@H](O)[C@H]2O1 | 0.0087 µM | 0.0276 µM
CC1(C)O[C@H]2[C@@H](O1)[C@@H](CNCCCCCCCCNc1c3c(nc4ccccc14)CCCC3)O[C@@H]1OC(C)(C)O[C@@H]12 | 0.0048 µM | 0.0367 µM
CO[C@@H]1O[C@H](CNCCCCCCCCNc2c3c(nc4ccccc24)CCCC3)[C@H]2OC(C)(C)O[C@@H]12 | 0.0899 µM | 0.0369 µM
CC1(C)O[C@H]2O[C@H](CNCCCCCCCCCNc3c4c(nc5ccccc35)CCCC4)[C@H](O)[C@H]2O1 | 0.0102 µM | 0.0308 µM
